Reference: paper PMC3012785 (Journal of neurochemistry, 2010)
Ends that are not written are not given here.

Settings: rat, in vivo

RHAYRSMAEWGFLYS [PGD3-4]
Half-life: 2.45 h
